From US20130261077A1 (priority 2012, published 2013)

Molecular target: T1, FimH-CRD (Escherichia coli, UniProt P08191)
T1 construct: The first 177 amino acids of the FimH protein; thrombin tag (printed as 'fusion protein with thrombin') (cleaved yes); made in house; host or cells: bacteria (pET21b plasmid)
Test: Competitive binding assay by fluorescence polarization, assay 2 (compounds prepared by robotics, plates frozen and thawed)
Method in brief: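 Fluorescence-polarization competition of 5 nM Alexa 647 mannoside probe with 60 nM FimH-CRD (first 177 residues, tag removed) in Tris-Cl pH 7.0, NaCl, EDTA, β-ME, BSA, 2.5% DMSO, 5 h at RT in the dark. Twelve-point 3-fold titrations (0.4 nM–75 μM) in duplicate; Kd interpolated from displacement curves.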

T1 sequence (P08191 22-177): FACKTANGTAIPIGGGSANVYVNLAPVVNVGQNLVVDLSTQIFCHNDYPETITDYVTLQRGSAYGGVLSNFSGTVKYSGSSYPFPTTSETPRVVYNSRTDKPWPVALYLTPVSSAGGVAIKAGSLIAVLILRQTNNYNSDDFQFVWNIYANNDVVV

Row | Compound | Kd [nM]
1 | COC(=O)c1nc2cc(-c3cccc([C@H]4O[C@H](CO)[C@@H](O)[C@H](O)[C@@H]4O)c3)ccc2[nH]1 [Compound 151, Methyl 5-[3-[(2R,3S,4R,5S,6R)-3,4,5-trihydroxy-6-(hydroxymethyl)tetrahydropyran-2-yl]phenyl]-1H-benzimidazole-2-carboxylate] | 37.8 ± 13.4
2 | CNC(=O)Cn1cnc2cc(-c3cccc([C@H]4O[C@H](CO)[C@@H](O)[C@H](O)[C@@H]4O)c3)ccc21 [Compound 152, N-Methyl-2-[5-[3-[(2R,3S,4R,5S,6R)-3,4,5-trihydroxy-6-(hydroxymethyl)tetrahydropyran-2-yl]phenyl]benzimidazol-1-yl]acetamide] | 43.8 ± 1.1
3 | O=C(O)c1cc(C(=O)O)cc(-c2cccc([C@H]3O[C@H](CO)[C@@H](O)[C@H](O)[C@@H]3O)c2)c1 [Compound 153, 5-[3-[(2R,3S,4R,5S,6R)-3,4,5-trihydroxy-6-(hydroxymethyl)tetrahydropyran-2-yl]phenyl]benzene-1,3-dicarboxylic acid] | 88.7 ± 41.2
4 | CNC(=O)c1cccc(-c2ccc3cc([C@H]4O[C@H](CO)[C@@H](O)[C@H](O)[C@@H]4O)ccc3c2)c1 [Compound 154, N-methyl-3-[6-[(2R,3S,4R,5S,6R)-3,4,5-trihydroxy-6-(hydroxymethyl)tetrahydropyran-2-yl]-2-naphthyl]benzamide] | 18.4 ± 6.9
5 | OC[C@H]1O[C@H](c2ccc3cc(-c4cc(Cl)cc(Cl)c4)ccc3c2)[C@@H](O)[C@@H](O)[C@@H]1O [Compound 155, (2R,3S,4R,5S,6R)-2-[6-(3,5-dichlorophenyl)-2-naphthyl]-6-(hydroxymethyl)tetrahydropyran-3,4,5-triol] | 71.7 ± 2
6 | OC[C@H]1O[C@H](c2ccc3cc(O)ccc3c2)[C@@H](O)[C@@H](O)[C@@H]1O [Compound 156, (2R,3S,4R,5S,6R)-2-(hydroxymethyl)-6-(6-hydroxy-2-naphthyl)tetrahydropyran-3,4,5-triol] | 16.5 ± 4.3
7 | CNC(=O)c1cccc(Cc2cccc([C@H]3O[C@H](CO)[C@@H](O)[C@H](O)[C@@H]3O)c2)c1 [Compound 157, N-methyl-3-[[3-[(2R,3S,4R,5S,6R)-3,4,5-trihydroxy-6-(hydroxymethyl)tetrahydropyran-2-yl]phenyl]methyl]benzamide] | 34.3 ± 8.1
8 | CNC(=O)c1cccc(-c2ccc(-c3ccc([C@H]4O[C@H](CO)[C@@H](O)[C@H](O)[C@@H]4O)cc3)c(C)c2)c1 [Compound 158, N-methyl-3-[3-methyl-4-[4-[(2R,3S,4R,5S,6R)-3,4,5-trihydroxy-6-(hydroxymethyl)tetrahydropyran-2-yl]phenyl]phenyl]benzamide] | 20.5 ± 4.3
9 | CNC(=O)c1cccc(-c2ccc(-c3cccc([C@H]4O[C@H](CO)[C@@H](O)[C@H](O)[C@@H]4O)c3)c(C)c2)c1 [Compound 159, N,3′-dimethyl-3″-((2R,3S,4R,5S,6R)-3,4,5-trihydroxy-6-(hydroxymethyl)tetrahydro-2H-pyran-2-yl)-[1,1′:4′,1″-terphenyl]-3-carboxamide] | 15.6 ± 3.4
10 | Cc1nnc(-c2ccc3cc(-c4cccc([C@H]5O[C@H](CO)[C@@H](O)[C@H](O)[C@@H]5O)c4)ccc3c2)o1 [Compound 161, (2R,3S,4R,5S,6R)-2-(hydroxymethyl)-6-[3-[6-(5-methyl-1,3,4-oxadiazol-2-yl)-2-naphthyl]phenyl]tetrahydropyran-3,4,5-triol] | 6.6 ± 1.2
11 | OC[C@H]1O[C@H](c2cccc(-c3nc4c(Cl)cc(Cl)cc4[nH]3)c2)[C@@H](O)[C@@H](O)[C@@H]1O [Compound 162] | 39.5 ± 11
12 | OC[C@H]1O[C@H](c2cccc(-c3nc4ccccc4[nH]3)c2)[C@@H](O)[C@@H](O)[C@@H]1O [Compound 163] | 82.1 ± 0.6
13 | Cc1ccc2[nH]c(-c3cccc([C@H]4O[C@H](CO)[C@@H](O)[C@H](O)[C@@H]4O)c3)nc2c1 [Compound 164] | 50.2 ± 14.1
14 | OC[C@H]1O[C@H](c2cccc(-c3nc4c(F)cc(F)cc4[nH]3)c2)[C@@H](O)[C@@H](O)[C@@H]1O [Compound 165] | 28.9 ± 11.7
15 | OC[C@H]1O[C@H](c2cccc(-c3nc4cc(F)ccc4[nH]3)c2)[C@@H](O)[C@@H](O)[C@@H]1O [Compound 166] | 44.1 ± 19.9
16 | N#Cc1ccc2[nH]c(-c3cccc([C@H]4O[C@H](CO)[C@@H](O)[C@H](O)[C@@H]4O)c3)nc2c1 [Compound 167] | 32.1 ± 4.3
17 | O=C(c1ccccc1)c1ccc2[nH]c(-c3cccc([C@H]4O[C@H](CO)[C@@H](O)[C@H](O)[C@@H]4O)c3)nc2c1 [Compound 168] | 42.5 ± 18.3
18 | CS(=O)(=O)c1ccc2[nH]c(-c3cccc([C@H]4O[C@H](CO)[C@@H](O)[C@H](O)[C@@H]4O)c3)nc2c1 [Compound 169] | 25.7 ± 0.4
19 | OC[C@H]1O[C@H](c2cccc(-c3nc4cc(Cl)ccc4[nH]3)c2)[C@@H](O)[C@@H](O)[C@@H]1O [Compound 170] | 32.4 ± 14.4
20 | OC[C@H]1O[C@H](c2cccc(-c3nc4c(C(F)(F)F)cccc4[nH]3)c2)[C@@H](O)[C@@H](O)[C@@H]1O [Compound 171] | 32.1 ± 19.1
21 | CNC(=O)c1ccc2[nH]c(-c3cccc([C@H]4O[C@H](CO)[C@@H](O)[C@H](O)[C@@H]4O)c3)nc2c1 [Compound 172, N-methyl-2-(3-((2R,3S,4R,5S,6R)-3,4,5-trihydroxy-6-(hydroxymethyl)tetrahydro-2H-pyran-2-yl)phenyl)-1H-benzo[d]imidazole-5-carboxamide] | 530 ± 714
22 | CNC(=O)c1cccc2[nH]c(-c3cccc([C@H]4O[C@H](CO)[C@@H](O)[C@H](O)[C@@H]4O)c3)nc12 [Compound 173, N-methyl-2-(3-((2R,3S,4R,5S,6R)-3,4,5-trihydroxy-6-(hydroxymethyl)tetrahydro-2H-pyran-2-yl)phenyl)-1H-benzo[d]imidazole-4-carboxamide] | 54.6 ± 23
23 | OC[C@H]1O[C@H](c2cccc(-c3ccc(-c4cccnc4)cc3)c2)[C@@H](O)[C@@H](O)[C@@H]1O [Compound 174] | 13.6 ± 3.4
24 | Cc1nc(-c2ccc(-c3cccc([C@H]4O[C@H](CO)[C@@H](O)[C@H](O)[C@@H]4O)c3)cc2)no1 [Compound 175] | 10.2 ± 0.04
25 | Cc1nnc(-c2ccc(-c3cccc([C@H]4O[C@H](CO)[C@@H](O)[C@H](O)[C@@H]4O)c3)cc2)s1 [Compound 176] | 21.1 ± 2.6
26 | Cc1nc(-c2ccc(-c3cccc([C@H]4O[C@H](CO)[C@@H](O)[C@H](O)[C@@H]4O)c3)cc2)cs1 [Compound 177] | 12.1 ± 5.8
27 | OC[C@H]1O[C@H](c2cccc(-c3ccc(-c4nnco4)cc3)c2)[C@@H](O)[C@@H](O)[C@@H]1O [Compound 178] | 17.9 ± 3.7
28 | Cn1cnc2cc(-c3cccc([C@H]4O[C@H](CO)[C@@H](O)[C@H](O)[C@@H]4O)c3)ccc21 [Compound 179, (2R,3S,4R,5S,6R)-2-(hydroxymethyl)-6-(3-(1-methyl-1H-benzo[d]imidazol-5-yl)phenyl)tetrahydro-2H-pyran-3,4,5-triol] | 20.4 ± 0.8
29 | CNC(=O)Cc1nnc(-c2ccc(-c3cccc([C@H]4O[C@H](CO)[C@@H](O)[C@H](O)[C@@H]4O)c3)cc2)o1 [Compound 181, N-methyl-2-(5-(3′-((2R,3S,4R,5S,6R)-3,4,5-trihydroxy-6-(hydroxymethyl)tetrahydro-2H-pyran-2-yl)-[1,1′-biphenyl]-4-yl)-1,3,4-oxadiazol-2-yl)acetamide] | 21.7 ± 4.2
